Experimental data reported in ChEMBL document CHEMBL1201862, “PubChem BioAssay data set” (2004).
Calls of active or inactive are those of the source. Cut-off read from the data, not from the text of the source, for most assays here: actives have a measured EC50 and inactives only a lower limit.

What was measured:
[1] = alpha-synuclein stem-loop luciferase translation blockers – H4 neuroglioma cells, luminescence, confirmation (AID 1988); type: functional, cell-based
[2] = luciferase reporter signal suppression in cells – H4 neuroglioma cells, luminescence, dose response (AID 1990); type: functional, cell-based
[3] = luciferase reporter signal reduction – luminescence, H4-C neuroglioblastoma cells, dose response (AID 2458); type: functional, cell-based;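 note: H4 neuroglioblastoma cells stably carrying a luciferase reporter gene fusion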
[4] = alpha-synuclein stem-loop translation blockers – luminescence, H4 neuroglioblastoma cells, dose confirmation, confirmation (AID 2454); type: functional, cell-based;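 note: H4 neuroglioblastoma cells carrying an alpha-synuclein 5'UTR luciferase reporter; potency for inhibition of the luciferase signal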
[5] = Luminescence Cell-Based Dose Response HTS to Identify Inhibitors of 5'UTR Stem-Loop Driven Prion Protein mRNA Translation in H4 Neuroglioblastoma Cells. [Related pubchem assays: 1827 (Project Summary), 1813 (Primary HTS)]; type: functional
cells = type: functional, cell-based
Hexokinase = Hexokinase (Trypanosoma brucei, UniProt Q38C41); test: Confirmation assay for inhibitors of Trypanosoma brucei hexokinase 1-Analogue-first series. [Related pubchem assays (depositor defined):AID1430, AID1632, AID2516, AID2560, AID2579, AID2600, AID449725, AID492951]; type: functional
Sequence of Hexokinase (Q38C41 whole entry): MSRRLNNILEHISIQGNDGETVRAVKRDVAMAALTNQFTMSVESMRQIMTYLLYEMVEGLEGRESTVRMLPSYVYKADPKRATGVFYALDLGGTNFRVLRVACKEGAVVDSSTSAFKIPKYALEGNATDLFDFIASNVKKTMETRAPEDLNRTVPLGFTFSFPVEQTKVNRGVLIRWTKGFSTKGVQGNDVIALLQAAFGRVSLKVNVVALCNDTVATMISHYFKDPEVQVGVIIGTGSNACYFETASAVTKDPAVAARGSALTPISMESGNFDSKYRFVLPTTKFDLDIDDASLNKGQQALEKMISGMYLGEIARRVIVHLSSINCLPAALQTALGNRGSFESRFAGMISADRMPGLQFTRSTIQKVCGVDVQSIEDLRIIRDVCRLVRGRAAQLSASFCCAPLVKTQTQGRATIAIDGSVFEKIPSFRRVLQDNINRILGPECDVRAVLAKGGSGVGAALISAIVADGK

[6] = biological target: Lysosomal acid glucosylceramidase (Homo sapiens, UniProt P04062); test: Dose response cell-based high throughput screening assay to identify enhancers of beta-glucosidase activity. [Related pubchem assays: 784 ]; type: functional
Sequence of Lysosomal acid glucosylceramidase (P04062 whole entry): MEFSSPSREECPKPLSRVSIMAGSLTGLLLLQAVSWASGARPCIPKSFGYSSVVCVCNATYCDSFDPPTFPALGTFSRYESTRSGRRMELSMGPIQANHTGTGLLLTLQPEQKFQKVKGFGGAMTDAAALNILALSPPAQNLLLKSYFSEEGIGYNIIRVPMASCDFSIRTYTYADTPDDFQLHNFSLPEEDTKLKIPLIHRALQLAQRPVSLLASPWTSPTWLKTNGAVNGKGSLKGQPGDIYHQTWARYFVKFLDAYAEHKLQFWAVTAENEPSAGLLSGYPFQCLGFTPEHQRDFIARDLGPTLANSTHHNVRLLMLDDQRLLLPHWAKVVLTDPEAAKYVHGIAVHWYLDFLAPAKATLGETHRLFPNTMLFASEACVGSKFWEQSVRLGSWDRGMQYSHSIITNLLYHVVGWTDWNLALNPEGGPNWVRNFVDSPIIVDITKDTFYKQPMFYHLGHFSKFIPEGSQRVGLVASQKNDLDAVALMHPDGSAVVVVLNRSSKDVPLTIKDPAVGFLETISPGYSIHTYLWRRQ

[7] = HEK-293T cell viability reduction – luminescence, B-cell screen hits, cytotoxicity control for BCR NF-kB inhibitor project, dose response (AID 489021); type: functional, cell-based;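 note: HEK-293T cells carrying an NF-kB luciferase reporter; cells exposed to compound for about 14 hours before viability readout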
[8] = biological target: T1, Kappa-type opioid receptor (Homo sapiens, UniProt P41145); type: functional
T1 sequence (P41145 whole entry): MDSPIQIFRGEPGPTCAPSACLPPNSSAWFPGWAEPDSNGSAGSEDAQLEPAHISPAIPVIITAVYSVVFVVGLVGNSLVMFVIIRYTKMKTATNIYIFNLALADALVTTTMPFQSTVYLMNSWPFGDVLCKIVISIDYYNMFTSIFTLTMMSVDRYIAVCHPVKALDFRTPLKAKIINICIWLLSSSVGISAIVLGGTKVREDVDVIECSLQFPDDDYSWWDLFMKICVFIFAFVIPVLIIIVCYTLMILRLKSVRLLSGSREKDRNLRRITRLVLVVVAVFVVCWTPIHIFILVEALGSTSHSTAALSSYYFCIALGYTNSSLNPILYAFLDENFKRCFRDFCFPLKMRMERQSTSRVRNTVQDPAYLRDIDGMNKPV

Vero = test: cells; type: functional; conditions: Chlorocebus sabaeus
Streptococcus = test: GAS UMAA2166 growth inhibition – luminescence, BacTiterGlo, counter-screen for streptokinase expression inhibitor project, dose response (AID 1915); type: functional, organism-based;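 note: potency for reduction of bacterial viability or growth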
[9] = system: Streptococcus sp. 'group A'; test: Streptococcus pyogenes SK(-)GAS viability under kanamycin – luminescence, BacTiterGlo, confirmation, counter-screen for streptokinase expression inhibitor project, dose response (AID 1900); type: functional, organism-based
[10] = biological target: T1, Kappa-type opioid receptor; type: functional; remark: listed apart in the source
INS1 = test: INS-1E survival protection against cytokine death – cell-based, luminescence, retest, dose response (AID 449756); type: functional; conditions: Rattus norvegicus;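 note: cell death triggered by IL-1 beta plus TNF-alpha plus IFN-gamma mixture; protective hits raise ATP signal compared with cytokine alone wells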
[11] = biological target: Heat shock protein HSP 90-alpha (Homo sapiens, UniProt P07900); type: functional, organism-based
Beta-galactosidase = Beta-galactosidase (Escherichia coli, UniProt Q8VNN2); type: functional
Sequence of Beta-galactosidase (Q8VNN2 whole entry): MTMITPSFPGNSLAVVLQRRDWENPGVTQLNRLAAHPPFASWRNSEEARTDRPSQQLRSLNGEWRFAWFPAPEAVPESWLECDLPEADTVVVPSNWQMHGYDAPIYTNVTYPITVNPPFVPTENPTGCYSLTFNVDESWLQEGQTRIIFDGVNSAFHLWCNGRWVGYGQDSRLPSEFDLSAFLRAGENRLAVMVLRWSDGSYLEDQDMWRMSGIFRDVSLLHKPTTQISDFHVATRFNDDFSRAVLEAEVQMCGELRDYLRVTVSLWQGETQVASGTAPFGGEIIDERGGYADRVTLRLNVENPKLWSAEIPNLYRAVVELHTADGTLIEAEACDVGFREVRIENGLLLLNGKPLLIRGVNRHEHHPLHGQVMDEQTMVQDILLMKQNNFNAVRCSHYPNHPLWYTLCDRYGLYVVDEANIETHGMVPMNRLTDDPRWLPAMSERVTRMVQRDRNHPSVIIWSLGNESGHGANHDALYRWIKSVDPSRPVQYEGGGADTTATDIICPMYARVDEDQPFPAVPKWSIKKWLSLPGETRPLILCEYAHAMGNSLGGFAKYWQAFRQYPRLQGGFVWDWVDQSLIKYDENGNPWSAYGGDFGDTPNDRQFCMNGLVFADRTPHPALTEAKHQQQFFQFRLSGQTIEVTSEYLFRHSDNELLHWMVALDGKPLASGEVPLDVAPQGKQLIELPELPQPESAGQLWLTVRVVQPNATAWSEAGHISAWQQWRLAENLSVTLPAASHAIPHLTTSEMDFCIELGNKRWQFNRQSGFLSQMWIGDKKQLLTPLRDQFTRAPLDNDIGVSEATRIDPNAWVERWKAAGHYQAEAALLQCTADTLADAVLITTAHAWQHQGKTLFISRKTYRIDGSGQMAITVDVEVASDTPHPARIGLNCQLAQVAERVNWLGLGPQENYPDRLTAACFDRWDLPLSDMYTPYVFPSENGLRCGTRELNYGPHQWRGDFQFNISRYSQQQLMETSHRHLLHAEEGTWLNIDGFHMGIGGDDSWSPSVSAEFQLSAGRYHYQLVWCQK

[12] = biological target: T2, Heat shock factor protein 1 (Mus musculus, UniProt P38532); test: enhancement of HSF1-driven luciferase signal – cell-based, NIH3T3, luminescence, dose retest, confirmation (AID 435004); type: functional;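 note: stress induced by proteasome inhibitor MG132 added 30 min after compound; luciferase reporter driven by HSF1 response element in NIH3T3 cells; actives raise luminescence as potentiators of the MG132 stress response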
T2 sequence (P38532 whole entry): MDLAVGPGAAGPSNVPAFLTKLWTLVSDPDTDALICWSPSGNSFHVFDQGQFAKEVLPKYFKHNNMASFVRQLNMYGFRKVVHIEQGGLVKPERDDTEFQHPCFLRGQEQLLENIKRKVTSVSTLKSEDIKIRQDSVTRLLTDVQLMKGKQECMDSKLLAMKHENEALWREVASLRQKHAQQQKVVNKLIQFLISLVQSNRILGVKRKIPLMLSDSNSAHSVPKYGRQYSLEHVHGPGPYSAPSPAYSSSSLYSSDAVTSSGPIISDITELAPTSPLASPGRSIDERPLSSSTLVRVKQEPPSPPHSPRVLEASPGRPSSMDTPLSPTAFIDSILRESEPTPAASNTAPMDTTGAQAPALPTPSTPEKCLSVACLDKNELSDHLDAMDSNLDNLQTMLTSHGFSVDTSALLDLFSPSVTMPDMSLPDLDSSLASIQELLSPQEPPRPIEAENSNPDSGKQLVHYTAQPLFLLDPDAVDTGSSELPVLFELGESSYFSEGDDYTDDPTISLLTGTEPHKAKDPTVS

With `O=Cc1cn(Cc2ccc([N+](=O)[O-])cc2)c2ccccc12` the EC50 [1] was 0.233 µM (active), the EC50 [2] was 5.79 µM (active) and the EC50 [3] was 1.25 µM (active). For the same compound, the EC50 [4] was 1.02 µM (active), the EC50 [5] was < 0.1 µM (active) and the EC50 (cells) was 0.466 µM (active).
With `O=c1c2cc(F)c(F)cc2sn1-c1ccccc1` the IC50 (Hexokinase) was 2.23 µM (active).
For `CCCc1cc(O)nc(SCC(=O)CSc2nc(O)cc(CCC)n2)n1`, the EC50 [6] was > 50 µM (not active).
For `COc1ccc(-c2nn(C)c(=O)c3ccccc23)cc1NS(C)(=O)=O`, the IC50 [7] was > 80 µM (inactive).
With `COc1ccc(N=Nc2ccc(O)c3ncccc23)cc1` the IC50 [8] was 5.64 µM (active), the EC50 [1] was < 0.1 µM (active) and the CC50 (Vero) was 6.3 µM (active). The EC50 [2] was 8.21 µM (active), the EC50 (Streptococcus) was 2.5 µM (active) and the EC50 [9] was 0.191 µM (active). For the same compound, the EC50 [3] was > 12 µM (not active), the IC50 [10] was > 32 µM and the EC50 [4] was > 12 µM (not active). For the same compound, the EC50 [5] was 6.71 µM (active), the EC50 (cells) was 1.65 µM (active) and the AC50 (INS1) was 1.16 µM (active). For the same compound, the AC50 [11] was 3.34 µM (active) and the EC50 (Beta-galactosidase) was 24.6 µM (active).
With `CCc1ccc(C(=O)Nc2cc(Cl)ccc2C(=O)OC)cc1` the IC50 (Hexokinase) was > 25 µM (inactive).
For `COc1ccc(C(=O)n2nc(-c3ccc(Cl)cc3)nc2N)cc1OC`, the IC50 [7] was > 80 µM (inactive) and the EC50 [12] was > 260 µM (inconclusive).
